# Reference: US6903099B2, “Condensed pyrazindione derivatives” (Lilly Icos LLC, priority 2000, dated 2005)
# How the values were obtained:
# recombinant human PDE5 = molecular target: T1, recombinant human PDE5 (Homo sapiens, UniProt O76074); assay: Inhibitory effect on cGMP-PDE (PDE5 IC50 determination); assay type: biochemical; settings: in vitro, read-out: IC50 versus PDE5
# T1 construct: host or cells: Saccharomyces cerevisiae strain BJ2-54 (ATCC 74465)
# Description: The compounds of structural formula (I) were tested for an ability to inhibit PDE5. The ability of a compound to inhibit PDE5 activity is related to the IC50 value for the compound, i.e., the concentration of inhibitor required for 50% inhibition of enzyme activity. The IC50 value for compounds of structural formula (I) were determined using recombinant human PDE5.
# Phosphodiesterase activity of the preparations was determined as follows. PDE assays utilizing a charcoal separation technique were performed essentially as described in Loughney et al. (1996). In this assay, PDE activity converts [32P]cAMP or [32P]cGMP to the corresponding [32P]5′-AMP or [32P]5′-GMP in proportion to the amount of PDE activity present. The [32P]5′-AMP or [32P]5′-GMP then was quantitatively converted to free [32P]phosphate and unlabeled adenosine or guanosine by the action of snake venom 5′-nucleotidase. […] The assay was performed at 30° C. in a 100 μL reaction mixture containing (final concentrations) 40 mM Tris HCl (pH 8.0), 1 μM ZnSO4, 5 mM MgCl2, and 0.1 mg/mL bovine serum albumin (BSA). PDE enzyme was present in quantities that yield <30% total hydrolysis of substrate (linear assay conditions). The assay was initiated by addition of substrate ([…] [32P]cAMP or cGMP), and the mixture was incubated for 12 minutes. Seventy-five (75) μg of Crotalus atrox venom then was added, and the incubation was continued for 3 minutes (15 minutes total). The reaction was stopped by addition of 200 μL of activated charcoal (25 mg/mL suspension in 0.1 M NaH2PO4, pH 4). After centrifugation (750×g for 3 minutes) to sediment the charcoal, a sample of the supernatant was taken for radioactivity determination in a scintillation counter and the PDE activity was calculated.
# cGMP-PDE activity of compounds of the present invention was measured using a one-step assay adapted from Wells et al., Biochim. Biophys. Acta, 384, 430 (1975). The reaction medium contained 50 mM Tris-HCl, pH 7.5, 5 mM magnesium acetate, 250 μg/ml 5′-Nucleotidase, 1 mM EGTA, and 0.15 μM 8-[H^3]-cGMP. Unless otherwise indicated, the enzyme used was a human recombinant PDE5 (ICOS Corp., Bothell, Wash.).
# Compounds of the invention were dissolved in DMSO finally present at 2% in the assay.
melting point,IC50 (recombinant human PDE5),SMILES
274 to 277 °C,338 nM,"CN1CC(=O)N2[C@H](c3ccc4c(c3)OCO4)c3c([nH]c4ccccc34)C[C@@H]2C1=O [Example 5(a), (5R,9aR)-5-Benzo(1,3)dioxol-5-yl-8-methyl-5,7,8,9a,10,11-hexahydro-5a,8,11-triaza-benzo[b]fluorane-8,9-dione]"
245 to 266 °C,555 nM,"CN1CC(=O)N2[C@H](c3ccc4c(c3)OCO4)c3sc4ccccc4c3C[C@@H]2C1=O (racemic) [Example 4, (+/−,cis)-10-Benzo[1,3]dioxol-5-yl-7-methyl-5,7,8,10-tetrahydro-5aH-11-thia-7,9a-diazabenzo[β]fluorene-6,9-dione]"
274 to 277 °C,125 nM,"CN1CC(=O)N2[C@@H](c3ccc4c(c3)OCO4)c3c([nH]c4ccccc34)C[C@@H]2C1=O [Example 5(b), (5S,9aR)-5-Benzo[1,3]dioxol-5-yl-8-methyl-5,7,8,9a,10,11-hexahydro-5a,8,11-triaza-benzo[b]fluorene-8,9-dione]"
262 to 276 °C,2.3 nM,"CN1CC(=O)N2[C@H](c3ccc4c(c3)OCO4)c3[nH]c4ncccc4c3C[C@@H]2C1=O (racemic) [Example 1, (+/−,cis)-10-Benzo[1,3]dioxol-5-yl-7-methyl-5,5a,7,8,10,11-hexahydro-1,7,9a,11-tetraazabeno[β]fluorene-6,9-dione]"
